From ChEMBL document CHEMBL3045781, “Sensitivity monitoring of powdery mildew pathogens to cyflufenamid and the evaluation of resistance risk” (J Pestic Sci, 2006)
Values after ≈ are worked out from the molar mass of the structure shown.

Tests used:
[1] = tested on: Blumeria graminis f. sp. tritici; assay: Antifungal activity against Blumeria graminis f. sp. tritici strains in compound treated wheat seedlings measured after 7 days by pot assay; format: functional, organism-based
[2] = tested on: Blumeria graminis f. sp. tritici; assay: Antifungal activity against Blumeria graminis f. sp. tritici strains by leaf segment floating assay; format: functional, organism-based
[3] = tested on: Podosphaera fusca; assay: Antifungal activity against kresoxim-methyl-resistant Sphaerotheca cucurbitae SFKMR-1; format: functional
[4] = tested on: Blumeria graminis f. sp. tritici; assay: Antifungal activity against Blumeria graminis f. sp. tritici after 6.25 g/ha 16 applications of compound by selection pressure test; format: functional, organism-based
[5] = tested on: Podosphaera fusca; assay: Antifungal activity against wild type Sphaerotheca cucurbitae SFS-1; format: functional
[6] = tested on: Blumeria graminis f. sp. tritici; assay: Antifungal activity against Blumeria graminis f. sp. tritici after 6.25 g/ha 6 applications of compound in pot by selection pressure test (Control = 0.097 ppm); format: functional, organism-based
[7] = tested on: Podosphaera fusca; assay: Antifungal activity against Sphaerotheca cucurbitae in compound treated cucumber leaves at 20 degC measured after 5 days by leaf disk assay; format: functional, organism-based
[8] = tested on: Podosphaera fusca; assay: Antifungal activity against triflumizole-resistant Sphaerotheca cucurbitae SFTFR-1; format: functional
[9] = tested on: Podosphaera fusca; assay: Antifungal activity against thiophanate-methyl-resistant Sphaerotheca cucurbitae SFTMR-1; format: functional

Row | SMILES | EC50 [1] | MIC ([1]; Blumeria graminis, 168 h) | EC50 [2] | MIC [3] | EC50 [4] | MIC [5] | EC50 [6] | EC50 [7] | MIC ([7]; Podosphaera fusca, 120 h) | MIC [8] | MIC [9]
1 | O=C(Cc1ccccc1)N/C(=N\OCC1CC1)c1c(C(F)(F)F)ccc(F)c1F [CYFLUFENAMID] | 0.029 ppm | 0.2 µg/mL (≈ 0.485 µM) | 0.0011 ppm | 0.8 µg/mL (≈ 1.94 µM) | 0.0008 ppm | 0.8 µg/mL (≈ 1.94 µM) | 0.007 ppm | 0.0019 ppm | 0.001 µg/mL (≈ 0.00243 µM) | 0.8 µg/mL (≈ 1.94 µM) | 0.8 µg/mL (≈ 1.94 µM)
2 | CO/N=C(/C(=O)OC)c1ccccc1COc1ccccc1C [KRESOXIM-METHYL] | – | – | – | > 100 µg/mL | – | 0.8 µg/mL (≈ 2.55 µM) | – | – | – | – | –
3 | COC(=O)NC(=S)Nc1ccccc1NC(=S)NC(=O)OC [THIOPHANATE METHYL] | – | – | – | – | – | 1 µg/mL (≈ 2.92 µM) | – | – | – | – | > 100 µg/mL
4 | CCCOC/C(=N\c1ccc(Cl)cc1C(F)(F)F)n1ccnc1 [TRIFLUMIZOLE] | – | – | – | – | – | 0.1 µg/mL (≈ 0.289 µM) | – | – | – | 5 µg/mL (≈ 14.5 µM) | –
